Data from the supplement of paper PMC11952222, “Development and comparison of single FLT3-inhibitors to dual FLT3/TAF1-inhibitors as an anti-leukemic approach” (PLOS One, 2025).
± gives the standard deviation of the averaged measurements.

Key:
Test in all cases: cell viability (CellTiter-Glo luminescence) relative to DMSO (fraction of DMSO control); higher = higher signal (more live cells for CellTiter-Glo)
Settings in all cases: 72 h
DU4475 = test system: DU4475
Protocol: (§1)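 MOLM13, DU4475, HDQP1 and IGROV1 cells were treated with compounds in 384-well format for 72 h (KASUMI-1 in 96-well plates, RPMI + 10% FCS, 72 h). Viability was read with CellTiter-Glo and cell death with CellTox Green, both normalised to DMSO vehicle. Doses ranged 0.001-30 µM.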

HDQP1 = test system: HDQP1
Protocol: as §1

MOLM13 = test system: MOLM13
Protocol: as §1

IGROV1 = test system: IGROV1
Protocol: as §1

KASUMI-1 = test system: KASUMI-1
Protocol: as §1

SMILES	cell viability (DU4475; 0.01 µM)	cell viability (DU4475; 0.1 µM)	cell viability (DU4475; 0.3 µM)	cell viability (DU4475; 1 µM)	cell viability (DU4475; 3 µM)	cell viability (DU4475; 10 µM)	cell viability (DU4475; 30 µM)	cell viability (HDQP1; 0.01 µM)	cell viability (HDQP1; 0.1 µM)	cell viability (HDQP1; 0.3 µM)	cell viability (HDQP1; 1 µM)	cell viability (HDQP1; 3 µM)	cell viability (HDQP1; 10 µM)	cell viability (HDQP1; 30 µM)	cell viability (MOLM13; 0.01 µM)	cell viability (MOLM13; 0.1 µM)	cell viability (MOLM13; 0.3 µM)	cell viability (MOLM13; 1 µM)	cell viability (MOLM13; 3 µM)	cell viability (MOLM13; 10 µM)	cell viability (MOLM13; 30 µM)	cell viability (IGROV1; 0.01 µM)	cell viability (IGROV1; 0.1 µM)	cell viability (IGROV1; 0.3 µM)	cell viability (IGROV1; 1 µM)	cell viability (IGROV1; 3 µM)	cell viability (IGROV1; 10 µM)	cell viability (IGROV1; 30 µM)	cell viability (KASUMI-1; 0.000948683 µM)	cell viability (KASUMI-1; 0.003 µM)	cell viability (KASUMI-1; 0.00948683 µM)	cell viability (KASUMI-1; 0.03 µM)	cell viability (KASUMI-1; 0.0948683 µM)	cell viability (KASUMI-1; 0.3 µM)	cell viability (KASUMI-1; 0.948683 µM)	cell viability (KASUMI-1; 3 µM)	cell viability (KASUMI-1; 9.48683 µM)	cell viability (KASUMI-1; 30 µM)
C=CCCn1cc(-c2cc(C(=O)N3CCOCC3)cc3c2ncn3C)c2cc[nH]c2c1=O [GNE-371]	1.01 ± 0.017	1.01 ± 0.026	1.02 ± 0.023	1.01 ± 0.029	1.02 ± 0.027	1.03 ± 0.036	1.05 ± 0.051	1.04 ± 0.04	1.03 ± 0.047	1.02 ± 0.036	0.975 ± 0.04	0.971 ± 0.055	0.999 ± 0.056	0.979 ± 0.047	1.01 ± 0.041	0.989 ± 0.05	0.986 ± 0.025	0.994 ± 0.031	0.986 ± 0.056	0.95 ± 0.067	0.928 ± 0.091	1.07 ± 0.11	1.02 ± 0.07	0.935 ± 0.064	0.975 ± 0.052	0.95 ± 0.11	0.931 ± 0.043	0.958 ± 0.054	–	–	–	–	–	–	–	–	–	–
Cn1cc(-c2cc(NC(=O)c3ccc(C(C)(C)C)cc3)n[nH]2)ccc1=O [3i-1248]	1.01 ± 0.029	1.01 ± 0.031	1 ± 0.035	0.984 ± 0.043	0.893 ± 0.054	0.572 ± 0.078	0.0157 ± 0.016	0.995 ± 0.032	0.989 ± 0.033	0.981 ± 0.082	0.973 ± 0.046	0.913 ± 0.048	0.807 ± 0.054	0.269 ± 0.13	0.988 ± 0.09	0.912 ± 0.088	0.773 ± 0.053	0.459 ± 0.07	0.179 ± 0.049	0.00744 ± 0.0056	-0.000138 ± 0.00087	0.989 ± 0.047	0.982 ± 0.075	0.953 ± 0.12	0.861 ± 0.067	0.783 ± 0.047	0.568 ± 0.075	0.0746 ± 0.044	1.15 ± 0.053	1.25 ± 0.078	1.36 ± 0.027	1.503 ± 0.0079	1.43 ± 0.11	1.41 ± 0.072	1.37 ± 0.046	1.11 ± 0.061	0.455 ± 0.036	0.00672 ± 0.00072
Cc1cc(-c2cc(NC(=O)c3ccc(C(C)(C)C)cc3)[nH]n2)ccn1 [3i-1246]	1 ± 0.023	1 ± 0.048	0.983 ± 0.023	0.966 ± 0.045	0.92 ± 0.029	0.435 ± 0.12	0.00106 ± 0.0011	0.98 ± 0.034	0.99 ± 0.031	0.986 ± 0.057	0.928 ± 0.083	0.943 ± 0.068	0.628 ± 0.098	0.178 ± 0.052	0.959 ± 0.052	0.755 ± 0.043	0.418 ± 0.062	0.21 ± 0.031	0.0386 ± 0.018	0.0136 ± 0.037	0.000242 ± 0.0027	0.998 ± 0.05	0.958 ± 0.072	0.866 ± 0.042	0.864 ± 0.095	0.811 ± 0.053	0.587 ± 0.085	0.19 ± 0.051	1.076 ± 0.0022	1.13 ± 0.067	1.17 ± 0.087	1.22 ± 0.064	–	1.1 ± 0.073	0.962 ± 0.2	0.566 ± 0.018	0.239 ± 0.0055	0.00978 ± 0.0007
CC(C)(C)c1ccc(C(=O)Nc2cc(-c3ccccc3)n[nH]2)cc1 [3i-1247]	1.02 ± 0.037	0.998 ± 0.027	0.955 ± 0.025	0.873 ± 0.027	0.446 ± 0.053	0.028 ± 0.0065	0.00743 ± 0.006	0.999 ± 0.019	1 ± 0.016	0.943 ± 0.046	0.877 ± 0.062	0.786 ± 0.061	0.719 ± 0.071	0.584 ± 0.12	0.858 ± 0.073	0.388 ± 0.12	0.19 ± 0.062	0.0317 ± 0.0089	0.00462 ± 0.0058	0.00157 ± 0.00088	0.000514 ± 0.00038	0.974 ± 0.071	0.955 ± 0.11	0.803 ± 0.035	0.739 ± 0.034	0.467 ± 0.062	0.365 ± 0.019	0.243 ± 0.049	1.26 ± 0.087	1.338 ± 0.0028	1.48 ± 0.063	1.411 ± 0.0049	1.38 ± 0.063	1.37 ± 0.064	1.2 ± 0.041	0.5738 ± 0.0019	0.1148 ± 0.00061	0.0202 ± 0.0019
CC(C)(C)c1cc(NC(=O)Nc2ccc(-c3cn4c(n3)sc3cc(OCCN5CCOCC5)ccc34)cc2)no1 [quizartinib]	1 ± 0.03	0.813 ± 0.038	0.336 ± 0.06	0.196 ± 0.052	0.0647 ± 0.034	0.317 ± 0.075	0.0882 ± 0.042	0.984 ± 0.052	1.01 ± 0.051	0.87 ± 0.054	0.807 ± 0.021	0.716 ± 0.088	0.84 ± 0.095	0.69 ± 0.13	0.00342 ± 0.00075	0.00261 ± 0.00061	0.00141 ± 0.0005	0.00194 ± 0.00081	0.000901 ± 0.00082	0.00066 ± 0.00036	0.000483 ± 0.00064	1.08 ± 0.081	1.07 ± 0.1	0.721 ± 0.12	0.633 ± 0.12	0.468 ± 0.12	0.614 ± 0.093	0.384 ± 0.069	–	–	–	–	–	–	–	–	–	–
